One data set in a line: in vitro. The note with it: human, hela cells, % viability.
With `COc1ccc([C@@]23CC[C@@H](NC(=O)Nc4ccccc4C#N)C[C@@H]2N(C)CC3)cc1OC` [CBK047540T], the viability at 28.5 h, 10 µM was determined as 96.1%.
`COc1ccc([C@@]23CCC(NC(=O)Nc4ccc5c(c4)Cc4ccccc4-5)C[C@@H]2N(C)CC3)cc1OC` (some centres unmarked) [CBK047550T]: the viability at 28.5 h, 10 µM stood at 85.9%.
As for `COc1ccc([C@@]23CCC(NC(=O)Nc4ccc(OCc5ccccc5)cc4)C[C@@H]2N(C)CC3)cc1OC` (some centres unmarked) [CBK047551T], the viability at 28.5 h, 10 µM was determined as 105%.
On the same count and under the same terms, the figure for `Cc1oc(-c2ccc(Cl)cc2)cc1C(=O)CC#N` [CBK047603] is 85.4%; for `CN(C)C(=O)c1ccc(Cn2nc(C(=O)NCCOc3ccccc3)c3ccccc32)cc1` [CBK047700] it is 91.7%.
With `C#CCNC(=O)c1nn(Cc2ccc(S(=O)(=O)N(C)OC)cc2)c2ccccc12` [CBK047985], the viability at 28.5 h, 10 µM came out at 96.2%.
The same measure, in the same setting: for `COc1ccc(Cn2nc(NS(=O)(=O)c3ccc(-c4ccon4)s3)c3ccccc32)cc1` [CBK048031] the value was 92.9%.
In the case of `COc1cccc(S(=O)(=O)Nc2nn(Cc3ccc(C)cc3)c3ccccc23)c1` [CBK048043], the viability at 28.5 h, 10 µM worked out at 89.8%.
`O=S(=O)(Nc1nn(Cc2ccc(C(F)(F)F)cc2)c2ccccc12)c1cccc2nsnc12` [CBK048086]: the viability at 28.5 h, 10 µM worked out at 94.8%.
For the compound `COc1ccc(Cn2nc(NC(C)=O)c3ccccc32)cc1` [CBK048200], the viability at 28.5 h, 10 µM is 109%.
Same read-out and setting: for `Cc1ccc(Cn2nc(NC(=O)c3cc(C)on3)c3ccccc32)cc1` [CBK048215] the value was 90.8%.
Consider `COc1ccc(Cn2nc(NC(=O)c3cnc4ccccc4n3)c3ccccc32)cc1` [CBK048343], for which the viability at 28.5 h, 10 µM was found to be 93%.
Still for that read-out and setting: the figure for `COc1ccc(Cn2nc(NC(=O)c3cn(C)c4ccccc34)c3ccccc32)cc1` [CBK048344] is 57.2%; for `O=C(Cc1ccc2c(c1)OCO2)Nc1nn(Cc2ccc(C(F)(F)F)cc2)c2ccccc12` [CBK048401] it is 115%.
For `CCc1cc(OCc2ccc(Cn3nc(NC(C)=O)c4ccccc43)cc2)c2ccccc2n1` [CBK048402], the viability at 28.5 h, 10 µM worked out at 91%.
For the compound `COCCOc1cccc(OCCOc2nccnc2N2CCNC[C@H]2C)c1` [CBK048435], the viability at 28.5 h, 10 µM was determined as 104%.
Turning to `O=C(NCc1ccco1)c1nn(-c2nc3ccccc3s2)c2ccccc12` [CBK048482], the viability at 28.5 h, 10 µM was found to be 97.4%.
Still for that read-out and setting: for `C#CCNC(=O)c1nn(-c2nc3ccccc3s2)c2ccccc12` [CBK048486] the value was 99.2%; for `Cc1cc(NC(=O)c2nn(-c3nc4ccccc4s3)c3ccccc23)no1` [CBK048489], 95.4%.
For `O=C(NCCOc1ccccc1)c1nn(-c2ncccn2)c2ccccc12` [CBK048494], the viability at 28.5 h, 10 µM turned out to be 81%.
Regarding `O=C(NCCc1c[nH]c2ccccc12)c1nn(-c2ncccn2)c2ccccc12` [CBK048496], the viability at 28.5 h, 10 µM is 77.7%.
The same measure, in the same setting: the figure for `O=C(NCc1ccncc1)c1nn(-c2ncccn2)c2ccccc12` [CBK048498] is 93.1%; for `O=C(NC1CC1)c1nn(-c2ncccn2)c2ccccc12` [CBK048508] it is 88%; for `O=C(Nc1ccc(OC(F)(F)F)cc1)c1nn(-c2ncccn2)c2ccccc12` [CBK048510] it is 98.9%.
The same measure, in the same setting: the figure for `O=C(Nc1ccon1)c1nn(-c2ncccn2)c2ccccc12` [CBK048513] is 95.3%.
In the case of `COc1ccc(Cn2nc(NC(=O)Nc3c(C)noc3C)c3ccccc32)cc1` [CBK048528], the viability at 28.5 h, 10 µM came to 88.9%.
Regarding `COc1ccc(Cn2nc(NC(=O)Nc3ccc(N(C)C)cc3)c3ccccc32)cc1` [CBK048529], the viability at 28.5 h, 10 µM is 90%.
For the compound `CN(C)C(=O)c1ccc(Cn2nc(NC(=O)OCc3ccccc3)c3ccccc32)cc1` [CBK048578], the viability at 28.5 h, 10 µM came to 89.6%.
Take `CS(=O)(=O)Nc1nccnc1N1CCN(c2ccccc2)CC1` [CBK048688]: the viability at 28.5 h, 10 µM stood at 91.8%.
Consider `COc1cc(OC)nc(N2CCN(c3nccnc3NS(=O)(=O)C3CC3)CC2)n1` [CBK048698], for which the viability at 28.5 h, 10 µM was determined as 109%.
Still for that read-out and setting: for `O=S(=O)(Nc1nccnc1N1CCN(c2ccccc2)CC1)c1ccc(F)cc1` [CBK048706] the value was 94.2%; for `CCCS(=O)(=O)Nc1nccnc1N1CCN(c2ccc3c(c2)OCO3)CC1` [CBK048824], 93.6%.
In the case of `CCCS(=O)(=O)Nc1nccnc1N1CCN(c2cnccn2)CC1` [CBK048828], the viability at 28.5 h, 10 µM amounted to 85.5%.
In the case of `Cc1cc(C)cc(NC(=O)N2CCN(c3nccnc3NS(C)(=O)=O)CC2)c1` [CBK048877], the viability at 28.5 h, 10 µM is 105%.
The same measure, in the same setting: the figure for `CNC(=S)N1CCN(c2nccnc2NS(=O)(=O)Cc2ccccc2)CC1` [CBK049044] is 102%; for `COCc1ccc(-c2nccnc2NS(C)(=O)=O)cc1` [CBK049631] it is 101%; for `O=S(=O)(Nc1nccnc1N1CCN(c2cnccn2)CC1)c1ccc(Cl)cc1` [CBK049664] it is 88.1%.
Take `COc1cc([C@@]23CCC(=O)C[C@@H]2N(C)CC3)ccc1OCc1ccccc1` [CBK049727]: the viability at 28.5 h, 10 µM is 106%.
Consider `COc1ccccc1CN(CC1CCNCC1)C(=O)NC(c1ccccc1)c1ccccc1` [CBK049741], for which the viability at 28.5 h, 10 µM amounted to 115%.
As to `O=C(Nc1ccccc1C(F)(F)F)N(Cc1ccccc1C(F)(F)F)CC1CCNCC1` [CBK049744], the viability at 28.5 h, 10 µM is 112%.
Still for that read-out and setting: the figure for `CC(C)(C)c1ccc(NC(=O)N(Cc2ccccc2C(F)(F)F)CC2CCNCC2)cc1` [CBK049752] is 86.7%; for `O=C(NCc1ccccc1Cl)N(Cc1cccc(Cl)c1)CC1CCNCC1` [CBK049762] it is 80.4%; for `Cc1noc(C)c1NC(=O)N(Cc1ccc2ccccc2c1)CC1CCNCC1` [CBK049774] it is 110%.
For the compound `O=C(Nc1c(F)cccc1F)N(Cc1cc(F)cc(F)c1)CC1CCNCC1` [CBK049795], the viability at 28.5 h, 10 µM came out at 90.5%.
As for `CC(C)(C)c1ccccc1NC(=O)N(Cc1cc(F)cc(F)c1)CC1CCNCC1` [CBK049802], the viability at 28.5 h, 10 µM turned out to be 108%.
Take `Nc1nc(CC(=O)N2CCCCC2)cs1` [CBK049866]: the viability at 28.5 h, 10 µM was determined as 97.9%.
Consider `Cc1c(Cl)cccc1S(=O)(=O)Nc1c(C(=O)O)[nH]c2ccccc12` [CBK049889], for which the viability at 28.5 h, 10 µM stood at 86.5%.
Still for that read-out and setting: for `COc1cc([C@@]23CC[C@@H](NC(=O)Nc4ccc(F)c(F)c4)C[C@@H]2N(C)CC3)ccc1O` [CBK049958C] the value was 90.3%; for `COC(=O)c1sc2ncccc2c1NS(=O)(=O)c1cc(Br)c(Cl)s1` [CBK049973], 112%.
Still for that read-out and setting: for `COC(=O)c1sc2ncccc2c1NS(=O)(=O)Cc1ccccc1[N+](=O)[O-]` [CBK049974] the value was 102%; for `COc1ccc(Br)cc1S(=O)(=O)Nc1c(C(=O)O)sc2ncccc12` [CBK049978], 88%.
With `COc1ccc(S(=O)(=O)Nc2c(C(=O)O)sc3ncccc23)cc1OC` [CBK049979], the viability at 28.5 h, 10 µM came out at 87.3%.
Turning to `Cc1noc(C)c1S(=O)(=O)Nc1c(C(=O)O)sc2ncccc12` [CBK049988], the viability at 28.5 h, 10 µM was determined as 99.5%.
Regarding `CCN(CC)C(=O)c1sc2ncccc2c1NS(=O)(=O)Cc1ccccc1[N+](=O)[O-]` [CBK050022], the viability at 28.5 h, 10 µM was 92.1%.
As to `Cc1ccc(S(=O)(=O)Nc2c(C(=O)N3CCN(C)CC3)sc3ncccc23)cc1[N+](=O)[O-]` [CBK050025], the viability at 28.5 h, 10 µM worked out at 91.2%.
Take `CN1CCN(C(=O)c2[nH]c3ccccc3c2NS(=O)(=O)c2cccc3cccnc23)CC1` [CBK050041]: the viability at 28.5 h, 10 µM was found to be 87.2%.
On to `CN1CCN(C(=O)c2[nH]c3ccccc3c2NS(=O)(=O)Cc2ccccc2)CC1` [CBK050046], for which the viability at 28.5 h, 10 µM was 93.9%.
As for `CN1CCN(C(=O)c2[nH]c3ccccc3c2NS(=O)(=O)c2cc(F)c(Br)cc2F)CC1` [CBK050051], the viability at 28.5 h, 10 µM stood at 90.5%.
With `CN1CCN(C(=O)c2[nH]c3ccccc3c2NS(=O)(=O)Cc2ccccc2[N+](=O)[O-])CC1` [CBK050059], the viability at 28.5 h, 10 µM is 92.6%.
Regarding `Cc1ccc(S(=O)(=O)Nc2c(C(=O)N3CCN(C)CC3)[nH]c3ccccc23)cc1[N+](=O)[O-]` [CBK050060], the viability at 28.5 h, 10 µM amounted to 90.1%.
On to `O=C(c1[nH]c2ccccc2c1NS(=O)(=O)/C=C/c1ccccc1)N1CCOCC1` [CBK050068], for which the viability at 28.5 h, 10 µM amounted to 93.1%.
Regarding `O=C(c1[nH]c2ccccc2c1NS(=O)(=O)Cc1ccccc1[N+](=O)[O-])N1CCOCC1` [CBK050079], the viability at 28.5 h, 10 µM came to 107%.
Regarding `O=C(Nc1ccc(F)cc1)c1[nH]c2ccccc2c1NS(=O)(=O)c1ccc(Cl)c(Cl)c1Cl` [CBK050091], the viability at 28.5 h, 10 µM was 86.7%.
On to `COc1ccc(Br)cc1S(=O)(=O)Nc1c(C(=O)Nc2ccc(F)cc2)[nH]c2ccccc12` [CBK050095], for which the viability at 28.5 h, 10 µM was 88.2%.
Take `CCN(CC)C(=O)c1[nH]c2ccccc2c1NS(=O)(=O)c1ccc(F)cc1` [CBK050105]: the viability at 28.5 h, 10 µM stood at 94.1%.

Staying with this data set, now noted: human, hela cells, % viability, bulk resorufin, single well.
As for `CN(C)C(=O)c1ccc(Cn2nc(C(=O)NC3CC3)c3ccccc32)cc1` [CBK047720], the viability at 28.5 h, 10 µM was determined as 93.1%.
On the same count and under the same terms, the figure for `Cc1ccc(Cn2nc(C(=O)NCc3ccncc3)c3ccccc32)cc1` [CBK047832] is 82.7%; for `Cc1ccc(Cn2nc(C(=O)Nc3ccccn3)c3ccccc32)cc1` [CBK047839] it is 105%; for `CONC(=O)c1nn(Cc2ccc(C)cc2)c2ccccc12` [CBK047848] it is 79.6%.
On to `O=C(Nc1ccc2c(c1)OC(F)(F)O2)c1nn(Cc2ccc(-c3csnn3)cc2)c2ccccc12` [CBK047877], for which the viability at 28.5 h, 10 µM worked out at 86.8%.
With `COc1ccc(Cn2nc(C(=O)NCc3ccco3)c3ccccc32)cc1` [CBK047883], the viability at 28.5 h, 10 µM was 63.3%.
Take `COc1ccc(Cn2nc(C(=O)Nc3nnc(C(F)(F)F)s3)c3ccccc32)cc1` [CBK047884]: the viability at 28.5 h, 10 µM was determined as 99.3%.
For the compound `Cc1ccc(Cn2nc(NC(=O)Oc3ccccc3)c3ccccc32)cc1` [CBK048407], the viability at 28.5 h, 10 µM stood at 84.2%.
As for `COc1ccc(OC(=O)Nc2nn(Cc3ccc(C#N)cc3)c3ccc(C)cc23)cc1` [CBK048654], the viability at 28.5 h, 10 µM stood at 74.4%.

By viability is commonly meant a read-out of living cells in per cent, often relative to untreated cells.

Values taken from article PMC12040169 (PLOS Biology, 2025).
